Experimental data as given in PMC7265341, “Quantifying CDK inhibitor selectivity in live cells” (Nature Communications, 2020).
Like-named read-outs stand apart in the source and are kept apart here.

How the values were obtained:
CDK1/Cyclin E1 = CDK1/Cyclin E1 (Homo sapiens, UniProt P06493); assay: NanoBRET live-cell target engagement, CDK1-NanoLuc/Cyclin E1 in HEK-293; type: binding; conditions: CDK1/E1, read-out: Inhibition at 10µM (%)
CDK4/Cyclin D1 = CDK4/Cyclin D1 (Homo sapiens, UniProt P11802); assay: NanoBRET live-cell target engagement, NanoLuc-CDK4/Cyclin D1 in HEK-293; type: binding; conditions: CDK4/D1; for IC50: read-out: IC50; for inhibition at 10 µM: read-out: Inhibition at 10µM (%)
CDK5/CDK5R1 = CDK5/CDK5R1 (Homo sapiens, UniProt Q00535); assay: NanoBRET live-cell target engagement, CDK5-NanoLuc/CDK5R1 in HEK-293; type: binding; conditions: CDK5/CDK5R1, read-out: Inhibition at 10µM (%)
CDK6/Cyclin D1 = CDK6/Cyclin D1 (Homo sapiens, UniProt Q00534); assay: NanoBRET live-cell target engagement, NanoLuc-CDK6/Cyclin D1 in HEK-293; type: binding; conditions: CDK6/D1; for IC50: read-out: IC50; for inhibition at 10 µM: read-out: Inhibition at 10µM (%)
CDK7 = CDK7 (Homo sapiens, UniProt P50613); assay: NanoBRET live-cell target engagement, NanoLuc-CDK7 in HEK-293; type: binding; conditions: CDK7; for IC50: read-out: IC50; for inhibition at 10 µM: read-out: Inhibition at 10µM (%)
CDK8/Cyclin C = CDK8/Cyclin C (Homo sapiens, UniProt P49336); assay: NanoBRET live-cell target engagement, NanoLuc-CDK8/Cyclin C in HEK-293; type: binding; conditions: CDK8/C, read-out: Inhibition at 10µM (%)
CDK9/Cyclin K = CDK9/Cyclin K (Homo sapiens, UniProt P50750); assay: NanoBRET live-cell target engagement, NanoLuc-CDK9/Cyclin K in HEK-293; type: binding; conditions: CDK9/K, read-out: Inhibition at 10µM (%)
CDK11A/Cyclin L2 = molecular target: T1, CDK11A/Cyclin L2 (Homo sapiens, UniProt Q9UQ88); assay: NanoBRET live-cell target engagement, CDK11A-NanoLuc/Cyclin L2 in HEK-293; type: binding; conditions: CDK11a/L2, read-out: Inhibition at 10µM (%)
T1 sequence (Q9UQ88 1-783): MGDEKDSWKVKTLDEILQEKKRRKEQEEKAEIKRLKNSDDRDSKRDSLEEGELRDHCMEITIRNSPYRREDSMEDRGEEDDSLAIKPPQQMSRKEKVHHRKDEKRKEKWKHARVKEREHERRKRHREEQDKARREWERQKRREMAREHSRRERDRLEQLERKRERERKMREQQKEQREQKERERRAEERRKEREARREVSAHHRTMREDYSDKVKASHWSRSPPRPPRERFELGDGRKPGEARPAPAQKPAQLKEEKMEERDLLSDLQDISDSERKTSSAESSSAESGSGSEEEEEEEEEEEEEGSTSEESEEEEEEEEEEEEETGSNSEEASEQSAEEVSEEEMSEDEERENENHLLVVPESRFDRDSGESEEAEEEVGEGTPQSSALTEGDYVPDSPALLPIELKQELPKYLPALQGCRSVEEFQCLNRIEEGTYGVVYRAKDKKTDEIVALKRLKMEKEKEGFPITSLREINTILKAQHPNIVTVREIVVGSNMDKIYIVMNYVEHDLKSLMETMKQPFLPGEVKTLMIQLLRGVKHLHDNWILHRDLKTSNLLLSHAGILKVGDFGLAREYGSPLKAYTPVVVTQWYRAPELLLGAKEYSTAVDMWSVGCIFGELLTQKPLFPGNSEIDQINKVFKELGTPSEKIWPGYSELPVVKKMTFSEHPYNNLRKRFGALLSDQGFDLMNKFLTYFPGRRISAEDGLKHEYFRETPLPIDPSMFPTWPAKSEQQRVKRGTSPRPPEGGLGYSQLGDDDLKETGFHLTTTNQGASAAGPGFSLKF

CDK11B/Cyclin L2 = CDK11B/Cyclin L2 (Homo sapiens, UniProt P21127); assay: NanoBRET live-cell target engagement, CDK11B-NanoLuc/Cyclin L2 in HEK-293; type: binding; conditions: CDK11b/L2, read-out: Inhibition at 10µM (%)
CDK12/Cyclin K = CDK12/Cyclin K (Homo sapiens, UniProt Q9NYV4); assay: NanoBRET live-cell target engagement, CDK12-NanoLuc/Cyclin K in HEK-293; type: binding; conditions: CDK12/K, read-out: Inhibition at 10µM (%)
CDK13/Cyclin K = CDK13/Cyclin K (Homo sapiens, UniProt Q14004); assay: NanoBRET live-cell target engagement, CDK13-NanoLuc/Cyclin K in HEK-293; type: binding; conditions: CDK13/K, read-out: Inhibition at 10µM (%)
CDK14/Cyclin Y = CDK14/Cyclin Y (Homo sapiens, UniProt O94921); assay: NanoBRET live-cell target engagement, CDK14-NanoLuc/Cyclin Y in HEK-293; type: binding; conditions: CDK14/Y, read-out: Inhibition at 10µM (%)
CDK15/Cyclin Y = CDK15/Cyclin Y (Homo sapiens, UniProt Q96Q40); assay: NanoBRET live-cell target engagement, NanoLuc-CDK15/Cyclin Y in HEK-293; type: binding; conditions: CDK15/Y, read-out: Inhibition at 10µM (%)
CDK16/Cyclin Y = CDK16/Cyclin Y (Homo sapiens, UniProt Q00536); assay: NanoBRET live-cell target engagement, CDK16-NanoLuc/Cyclin Y in HEK-293; type: binding; conditions: CDK16/Y; for IC50: read-out: IC50; for inhibition at 10 µM: read-out: Inhibition at 10µM (%)
CDK17/Cyclin Y = CDK17/Cyclin Y (Homo sapiens, UniProt Q00537); assay: NanoBRET live-cell target engagement, CDK17-NanoLuc/Cyclin Y in HEK-293; type: binding; conditions: CDK17/Y, read-out: Inhibition at 10µM (%)
CDK18/Cyclin Y = CDK18/Cyclin Y (Homo sapiens, UniProt Q07002); assay: NanoBRET live-cell target engagement, CDK18-NanoLuc/Cyclin Y in HEK-293; type: binding; conditions: CDK18/Y, read-out: Inhibition at 10µM (%)
CDK20/Cyclin H = CDK20/Cyclin H (Homo sapiens, UniProt Q8IZL9); assay: NanoBRET live-cell target engagement, NanoLuc-CDK20/Cyclin H in HEK-293; type: binding; conditions: CDK20/H, read-out: Inhibition at 10µM (%)
CDK19/Cyclin C = CDK19/Cyclin C (Homo sapiens, UniProt Q9BWU1); assay: NanoBRET live-cell target engagement, NanoLuc-CDK19/Cyclin C in HEK-293; conditions: read-out: Inhibition at 10µM (%), CDK19/C
CDK10/Cyclin L2 = CDK10/Cyclin L2 (Homo sapiens, UniProt Q15131); assay: NanoBRET live-cell target engagement, CDK10-NanoLuc/Cyclin L2 in HEK-293; conditions: read-out: Inhibition at 10µM (%), CDK10/L2
Chain of CDK10/Cyclin L2 (Q15131 whole entry): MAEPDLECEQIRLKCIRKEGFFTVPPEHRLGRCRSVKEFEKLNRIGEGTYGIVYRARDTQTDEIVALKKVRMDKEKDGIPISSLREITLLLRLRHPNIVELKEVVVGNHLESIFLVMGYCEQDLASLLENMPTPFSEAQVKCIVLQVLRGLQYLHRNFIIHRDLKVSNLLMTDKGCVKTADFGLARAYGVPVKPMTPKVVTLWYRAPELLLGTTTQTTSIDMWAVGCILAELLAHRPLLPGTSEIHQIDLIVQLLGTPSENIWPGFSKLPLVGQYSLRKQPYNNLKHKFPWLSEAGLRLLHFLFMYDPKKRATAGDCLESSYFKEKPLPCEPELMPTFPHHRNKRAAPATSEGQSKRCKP

Chain of CDK6/Cyclin D1 (Q00534 whole entry): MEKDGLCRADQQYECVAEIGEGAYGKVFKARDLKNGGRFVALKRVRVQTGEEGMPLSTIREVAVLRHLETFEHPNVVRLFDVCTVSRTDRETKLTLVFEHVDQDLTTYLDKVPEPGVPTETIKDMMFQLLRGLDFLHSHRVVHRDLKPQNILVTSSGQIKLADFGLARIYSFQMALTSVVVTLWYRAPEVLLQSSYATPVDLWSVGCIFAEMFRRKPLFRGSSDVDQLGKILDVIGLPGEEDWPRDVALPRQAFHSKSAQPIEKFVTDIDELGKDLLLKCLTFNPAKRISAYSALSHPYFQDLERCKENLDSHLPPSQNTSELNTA
Chain of CDK6/Cyclin D1 (P24385 whole entry partner): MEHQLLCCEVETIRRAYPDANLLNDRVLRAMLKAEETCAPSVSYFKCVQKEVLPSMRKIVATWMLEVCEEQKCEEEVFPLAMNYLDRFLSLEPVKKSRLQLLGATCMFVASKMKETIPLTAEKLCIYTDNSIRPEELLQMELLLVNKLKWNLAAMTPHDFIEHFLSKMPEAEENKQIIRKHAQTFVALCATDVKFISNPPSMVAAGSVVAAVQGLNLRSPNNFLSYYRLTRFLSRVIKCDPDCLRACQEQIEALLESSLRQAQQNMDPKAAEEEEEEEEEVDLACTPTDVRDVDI
Chain of CDK16/Cyclin Y (Q00536 whole entry): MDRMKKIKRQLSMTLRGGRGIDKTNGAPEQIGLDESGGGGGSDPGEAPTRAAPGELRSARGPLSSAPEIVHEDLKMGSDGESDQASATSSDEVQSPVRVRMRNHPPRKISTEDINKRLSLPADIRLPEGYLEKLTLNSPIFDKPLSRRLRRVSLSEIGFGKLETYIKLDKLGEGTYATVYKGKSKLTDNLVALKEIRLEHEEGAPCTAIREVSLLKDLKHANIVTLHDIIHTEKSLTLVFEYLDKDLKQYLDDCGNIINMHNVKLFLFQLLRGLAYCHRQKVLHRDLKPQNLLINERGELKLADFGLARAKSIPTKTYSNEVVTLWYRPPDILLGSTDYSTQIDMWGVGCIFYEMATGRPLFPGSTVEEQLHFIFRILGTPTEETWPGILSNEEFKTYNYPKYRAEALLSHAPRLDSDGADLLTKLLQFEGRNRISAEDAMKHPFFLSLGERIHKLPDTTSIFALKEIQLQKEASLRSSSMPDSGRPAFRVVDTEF
Chain of CDK16/Cyclin Y (Q8ND76 whole entry partner): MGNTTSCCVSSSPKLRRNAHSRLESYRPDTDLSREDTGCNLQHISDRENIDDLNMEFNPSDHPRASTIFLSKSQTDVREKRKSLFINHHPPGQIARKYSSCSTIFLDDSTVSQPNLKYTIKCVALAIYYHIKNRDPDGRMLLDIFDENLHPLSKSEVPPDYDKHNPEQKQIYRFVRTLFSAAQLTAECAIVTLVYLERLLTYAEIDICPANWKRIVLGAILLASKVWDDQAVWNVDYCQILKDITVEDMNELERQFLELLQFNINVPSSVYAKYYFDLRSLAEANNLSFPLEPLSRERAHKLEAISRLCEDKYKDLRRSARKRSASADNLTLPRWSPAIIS
Chain of CDK19/Cyclin C (Q9BWU1 whole entry): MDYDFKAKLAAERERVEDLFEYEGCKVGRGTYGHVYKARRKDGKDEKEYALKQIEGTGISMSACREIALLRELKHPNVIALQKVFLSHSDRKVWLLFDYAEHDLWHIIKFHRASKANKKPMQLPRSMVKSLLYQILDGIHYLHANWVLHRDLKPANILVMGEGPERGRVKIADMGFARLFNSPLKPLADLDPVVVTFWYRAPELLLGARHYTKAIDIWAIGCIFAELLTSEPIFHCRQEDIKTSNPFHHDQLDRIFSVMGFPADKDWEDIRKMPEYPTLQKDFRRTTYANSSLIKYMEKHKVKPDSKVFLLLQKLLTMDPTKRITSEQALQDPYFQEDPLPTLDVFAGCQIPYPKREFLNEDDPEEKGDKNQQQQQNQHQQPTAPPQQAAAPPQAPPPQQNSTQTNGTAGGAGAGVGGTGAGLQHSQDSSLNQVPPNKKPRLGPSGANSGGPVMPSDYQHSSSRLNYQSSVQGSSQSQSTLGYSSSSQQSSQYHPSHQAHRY
Chain of CDK19/Cyclin C (P24863 whole entry partner): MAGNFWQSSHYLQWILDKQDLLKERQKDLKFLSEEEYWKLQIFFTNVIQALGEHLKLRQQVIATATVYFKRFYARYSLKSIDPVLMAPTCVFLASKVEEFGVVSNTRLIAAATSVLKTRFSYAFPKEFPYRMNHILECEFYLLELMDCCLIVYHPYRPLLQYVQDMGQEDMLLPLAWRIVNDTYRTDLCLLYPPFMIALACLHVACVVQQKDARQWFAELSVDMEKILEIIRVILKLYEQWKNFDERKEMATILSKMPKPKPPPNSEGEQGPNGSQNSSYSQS
Chain of CDK8/Cyclin C (P49336 whole entry): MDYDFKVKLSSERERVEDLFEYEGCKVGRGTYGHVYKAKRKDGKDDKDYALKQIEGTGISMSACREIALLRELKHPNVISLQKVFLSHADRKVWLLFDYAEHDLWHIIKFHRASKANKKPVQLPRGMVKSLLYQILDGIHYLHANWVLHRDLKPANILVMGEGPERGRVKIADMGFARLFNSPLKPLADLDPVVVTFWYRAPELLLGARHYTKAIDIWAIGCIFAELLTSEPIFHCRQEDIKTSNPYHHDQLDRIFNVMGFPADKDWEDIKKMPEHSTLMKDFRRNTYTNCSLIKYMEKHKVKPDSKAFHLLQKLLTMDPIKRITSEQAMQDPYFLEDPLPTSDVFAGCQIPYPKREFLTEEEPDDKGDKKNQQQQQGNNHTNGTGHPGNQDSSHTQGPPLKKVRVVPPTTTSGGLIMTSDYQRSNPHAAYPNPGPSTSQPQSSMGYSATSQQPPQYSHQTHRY
Chain of CDK8/Cyclin C (P24863 whole entry partner): as the sequence (P24863 whole entry partner) above
Chain of CDK1/Cyclin E1 (P06493 whole entry): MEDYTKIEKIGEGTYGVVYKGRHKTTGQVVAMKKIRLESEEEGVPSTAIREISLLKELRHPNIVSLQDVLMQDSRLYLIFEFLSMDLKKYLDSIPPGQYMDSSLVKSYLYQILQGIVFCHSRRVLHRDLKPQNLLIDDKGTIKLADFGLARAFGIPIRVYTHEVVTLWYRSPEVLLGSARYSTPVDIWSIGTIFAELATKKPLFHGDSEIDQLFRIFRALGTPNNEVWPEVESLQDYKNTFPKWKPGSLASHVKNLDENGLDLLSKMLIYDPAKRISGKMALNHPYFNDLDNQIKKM
Chain of CDK1/Cyclin E1 (P24864 whole entry partner): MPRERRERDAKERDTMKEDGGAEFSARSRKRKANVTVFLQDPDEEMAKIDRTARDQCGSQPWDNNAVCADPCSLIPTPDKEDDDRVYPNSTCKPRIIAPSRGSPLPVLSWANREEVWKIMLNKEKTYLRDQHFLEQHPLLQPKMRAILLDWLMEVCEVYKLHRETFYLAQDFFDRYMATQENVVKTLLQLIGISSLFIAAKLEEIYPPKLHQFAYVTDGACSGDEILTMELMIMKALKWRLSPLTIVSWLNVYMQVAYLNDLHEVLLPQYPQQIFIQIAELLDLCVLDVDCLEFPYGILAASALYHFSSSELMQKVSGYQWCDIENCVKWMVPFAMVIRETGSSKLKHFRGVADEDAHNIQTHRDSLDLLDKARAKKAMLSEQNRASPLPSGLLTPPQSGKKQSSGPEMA
Chain of CDK15/Cyclin Y (Q96Q40 whole entry): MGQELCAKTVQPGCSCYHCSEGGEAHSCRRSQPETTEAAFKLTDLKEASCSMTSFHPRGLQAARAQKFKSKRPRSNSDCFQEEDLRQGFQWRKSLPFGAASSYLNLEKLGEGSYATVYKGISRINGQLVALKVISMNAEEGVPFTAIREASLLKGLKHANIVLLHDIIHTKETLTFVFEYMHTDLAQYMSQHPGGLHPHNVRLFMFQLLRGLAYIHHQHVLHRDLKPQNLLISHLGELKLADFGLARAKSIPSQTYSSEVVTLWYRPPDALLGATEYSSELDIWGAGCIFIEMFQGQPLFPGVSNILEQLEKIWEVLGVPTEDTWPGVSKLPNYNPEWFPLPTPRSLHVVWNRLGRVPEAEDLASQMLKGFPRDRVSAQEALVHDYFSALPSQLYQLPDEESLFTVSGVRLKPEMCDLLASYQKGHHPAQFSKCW
Chain of CDK15/Cyclin Y (Q8ND76 whole entry partner): as the sequence (Q8ND76 whole entry partner) above
Chain of CDK14/Cyclin Y (O94921 whole entry): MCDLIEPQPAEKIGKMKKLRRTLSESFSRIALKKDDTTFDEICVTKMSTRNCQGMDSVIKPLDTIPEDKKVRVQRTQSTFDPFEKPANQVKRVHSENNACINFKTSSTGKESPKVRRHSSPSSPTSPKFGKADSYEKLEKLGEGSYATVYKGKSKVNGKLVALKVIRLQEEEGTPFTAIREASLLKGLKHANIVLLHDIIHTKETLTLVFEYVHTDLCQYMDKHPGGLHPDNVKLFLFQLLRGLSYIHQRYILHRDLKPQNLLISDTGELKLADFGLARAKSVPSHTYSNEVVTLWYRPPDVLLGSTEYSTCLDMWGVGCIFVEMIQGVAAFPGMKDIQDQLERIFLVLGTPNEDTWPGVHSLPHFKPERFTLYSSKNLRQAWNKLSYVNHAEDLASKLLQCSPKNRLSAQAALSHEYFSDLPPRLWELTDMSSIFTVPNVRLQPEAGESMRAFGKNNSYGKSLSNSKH
Chain of CDK14/Cyclin Y (Q8ND76 whole entry partner): as the sequence (Q8ND76 whole entry partner) above

N#CCNC(=O)c1ccc(-c2ccnc(Nc3ccc(N4CCOCC4)cc3)n2)cc1 [Momelotinib]
inhibition at 10 µM (CDK1/Cyclin E1; average): 20% | inhibition at 10 µM (CDK1/Cyclin E1; experiment 1): 32.3% | inhibition at 10 µM (CDK1/Cyclin E1; experiment 2): 7.8% | IC50 (CDK4/Cyclin D1; average (± SEM where n=3)): 650 nM | inhibition at 10 µM (CDK4/Cyclin D1; average): 45.1% | IC50 (CDK4/Cyclin D1; experiment 1): 561 nM | inhibition at 10 µM (CDK4/Cyclin D1; experiment 1): 53.4% | IC50 (CDK4/Cyclin D1; experiment 2): 746 nM | inhibition at 10 µM (CDK4/Cyclin D1; experiment 2): 36.9% | inhibition at 10 µM (CDK5/CDK5R1; experiment 1): 7.6% | inhibition at 10 µM (CDK5/CDK5R1; experiment 2): 10% | IC50 (CDK6/Cyclin D1; average (± SEM where n=3)): 320 nM | inhibition at 10 µM (CDK6/Cyclin D1; average): 50.9% | IC50 (CDK6/Cyclin D1; experiment 1): 318 nM | inhibition at 10 µM (CDK6/Cyclin D1; experiment 1): 50.7% | IC50 (CDK6/Cyclin D1; experiment 2): 314 nM | inhibition at 10 µM (CDK6/Cyclin D1; experiment 2): 51.1% | IC50 (CDK7; average (± SEM where n=3)): 820 nM | inhibition at 10 µM (CDK7; average): 50.4% | IC50 (CDK7; experiment 1): 760 nM | inhibition at 10 µM (CDK7; experiment 1): 28.7% | IC50 (CDK7; experiment 2): 880 nM | inhibition at 10 µM (CDK7; experiment 2): 72.1% | inhibition at 10 µM (CDK8/Cyclin C; average): 2.5% | inhibition at 10 µM (CDK8/Cyclin C; experiment 1): 15.9% | inhibition at 10 µM (CDK8/Cyclin C; experiment 2): -10.8% | inhibition at 10 µM (CDK9/Cyclin K; average): 29.7% | inhibition at 10 µM (CDK9/Cyclin K; experiment 1): 29.8% | inhibition at 10 µM (CDK9/Cyclin K; experiment 2): 29.7% | inhibition at 10 µM (CDK11A/Cyclin L2; average): 26.4% | inhibition at 10 µM (CDK11A/Cyclin L2; experiment 1): 31.7% | inhibition at 10 µM (CDK11A/Cyclin L2; experiment 2): 21.1% | inhibition at 10 µM (CDK11B/Cyclin L2; average): 52.5% | inhibition at 10 µM (CDK11B/Cyclin L2; experiment 1): 32.8% | inhibition at 10 µM (CDK11B/Cyclin L2; experiment 2): 72.2% | inhibition at 10 µM (CDK12/Cyclin K; average): -8.8% | inhibition at 10 µM (CDK12/Cyclin K; experiment 1): 5.9% | inhibition at 10 µM (CDK12/Cyclin K; experiment 2): -23.5% | inhibition at 10 µM (CDK13/Cyclin K; average): 3.2% | inhibition at 10 µM (CDK13/Cyclin K; experiment 1): 4.9% | inhibition at 10 µM (CDK13/Cyclin K; experiment 2): 1.4% | inhibition at 10 µM (CDK14/Cyclin Y; average): 16.5% | inhibition at 10 µM (CDK14/Cyclin Y; experiment 1): 15.4% | inhibition at 10 µM (CDK14/Cyclin Y; experiment 2): 17.7% | inhibition at 10 µM (CDK15/Cyclin Y; average): 8.1% | inhibition at 10 µM (CDK15/Cyclin Y; experiment 1): 12.2% | inhibition at 10 µM (CDK15/Cyclin Y; experiment 2): 4% | IC50 (CDK16/Cyclin Y; average (± SEM where n=3)): 450 nM | IC50 (CDK16/Cyclin Y; experiment 1): 177 nM | inhibition at 10 µM (CDK16/Cyclin Y; experiment 1): 31.8% | IC50 (CDK16/Cyclin Y; experiment 2): 730 nM | inhibition at 10 µM (CDK16/Cyclin Y; experiment 2): 64.3% | inhibition at 10 µM (CDK17/Cyclin Y; average): 43.1% | inhibition at 10 µM (CDK17/Cyclin Y; experiment 1): 26.9% | inhibition at 10 µM (CDK17/Cyclin Y; experiment 2): 59.3% | inhibition at 10 µM (CDK18/Cyclin Y; average): 18.4% | inhibition at 10 µM (CDK18/Cyclin Y; experiment 1): 14.9% | inhibition at 10 µM (CDK18/Cyclin Y; experiment 2): 21.8% | inhibition at 10 µM (CDK20/Cyclin H; experiment 1): 10.6% | inhibition at 10 µM (CDK20/Cyclin H; experiment 2): -4.4% | inhibition at 10 µM (CDK19/Cyclin C; average): 6.1% | inhibition at 10 µM (CDK19/Cyclin C; experiment 1): 10.6% | inhibition at 10 µM (CDK19/Cyclin C; experiment 2): 1.6% | inhibition at 10 µM (CDK10/Cyclin L2; average): 16.4% | inhibition at 10 µM (CDK10/Cyclin L2; experiment 1): 15.4% | inhibition at 10 µM (CDK10/Cyclin L2; experiment 2): 17.3%
